Measured values taken from patent US8507483B2, “1H-pyrimidin-2-one derivatives, preparation thereof and pharmaceutical use thereof as inhibitors of AKT (PKB) phosphorylation” (Sanofi, priority 2009, dated 2013).

What follows are compounds tested on AKT protein phosphorylated on serine 473 (P-AKT-S473) in PC3 human prostate carcinoma cells (assay: pAKT expression in PC3 cells measured by MSD Multi-spot Biomarker Detection (Test B)). Conditions: PC-3, inhibition of AKT Ser473 phosphorylation, 1 to 2 h incubation, MSD sandwich immunoassay, absolute IC50, mean of two experiments.
Assay type: cell-based
Method: (§1) The inhibitory activity of the molecules on AKT phosphorylation is measured either by western blotting using the technique described below, or by the MSD Multi-spot Biomarker detection technique from Meso Scale Discovery also described below.
Where appropriate, the activity of the products is translated into approximately IC50, obtained from a dose-response curve of various concentrations tested and representing the dose giving 50% of specific inhibition (absolute IC50). Two independent experiments make it possible to calculate the mean of the IC50s. Study of pAKT expression in PC3 human prostate carcinoma cells measured by the MSD Multi-spot Biomarker Detection technique from Meso Scale Discovery (Test B): This test is based on measuring the expression of the AKT protein phosphorylated on serine 473 (P-AKT-S473), in the PC3 human prostate carcinoma line, by means of the technique based on a sandwich immunoassay using the MSD Multi-spot Biomarker Detection kit from Meso Scale Discovery: phospho-Akt (Ser473) whole cell lysate kit (#K151 CAD) or phospho-Akt (Ser473)/Total Akt whole cell lysate kit (#K151OOD).
The primary antibody specific for P-AKT-5473 (Kit #K151 CAD) is coated onto an electrode in each well of the 96-well plates of the MSD kit: after the addition of a protein lysate to each well, the signal is visualised by adding a secondary detection antibody labelled with an electrochemoluminescent compound. The procedure followed is that described in the kit.
(§2) On day 1, the PC3 cells are seeded into 96-well plates (TPP, #92096) at the concentration of 35 000 cells/well in 200 μl of DMEM medium (DMEM Gibco #11960-044) containing 10% of foetal calf serum (FCS Gibco, #10500-056) and 1% glutamine (L-Glu Gibco #25030-024), and incubated at 37° C., 5% CO2, overnight.
(§3) On day 2, the cells are incubated in the presence or absence of the test products for 1 to 2 h at 37° C. in the presence of 5% of CO2. The molecules, diluted in dimethyl sulphoxide (DMSO Sigma #D2650), are added from a 20-times concentrated stock solution, the final percentage of DMSO being 0.1%. The molecules are tested either at a single concentration of less than or equal to 10 μM, or at increasing concentrations in a range that can extend from less than 1 nM to 10 μM.
After this incubation, the cells are lysed for the preparation of the proteins. For this, after the culture medium has been drawn off, […] of complete Tris Lysis Buffer of the MSD kit containing the protease and phosphatase inhibitor solutions are added to the wells and the cells are lysed for 1 h at 4° C. with shaking At this stage, the plates containing the lysates can be frozen at −20° C. or at −80° C.
The wells of the 96-well plates of the MSD kit are saturated for 1 h at ambient temperature with the blocking solution of the MSD kit. Four washes are carried out with 150 μl of Tris Wash Buffer of the MSD kit. The lysates previously prepared are transferred into the 96-well multi-spot plates of the MSD kit and incubated for 1 h at ambient temperature, with shaking Four washes are carried out with 150 μl of Tris Wash Buffer of the MSD kit. 25 μl of the MSD sulpho-tag detection antibody solution are added to the wells and incubated for 1 h at ambient temperature, with shaking Four washes are carried out with 150 μl of Tris Wash Buffer of the MSD kit. 150 μl of Read Buffer of the MSD kit are added to the wells and the plates are read immediately on the 512400 instrument from Meso Scale Discovery.
The instrument measures a signal for each well. Wells without cells and containing the lysis buffer serve to determine the background noise that will be subtracted from all the measurements (min). The wells containing cells in the absence of product and in the presence of 0.1% DMSO are considered to be the 100% signal (max). The percentage inhibition is calculated for each concentration of test product according to the following formula: (1−((test−min)/(max−min)))×100. […]

Row | IC50 [µM] | Compound
1 | 0.085 | O=c1cc(N2CCOCC2)nc(Cc2nc3ccc(Br)cc3[nH]2)[nH]1 [Example 3, 2-[(5-bromo-1H-benzimidazol-2-yl)methyl]-6-(morpholin-4-yl)pyrimidin-4(3H)-one]
2 | 0.049 | O=c1cc(N2CCOCC2)nc(Cc2nc3ccc(F)cc3o2)[nH]1 [Example 6, 2-[(6-fluoro-1,3-benzoxazol-2-yl)methyl]-6-(morpholin-4-yl)pyrimidin-4(3H)-one]
3 | 0.026 | O=c1cc(N2CCOCC2)nc(Cc2nc3cc(F)ccc3o2)[nH]1 [Example 7, 2-[(5-fluoro-1,3-benzoxazol-2-yl)methyl]-6-(morpholin-4-yl)pyrimidin-4(3H)-one]

The remaining lines, values behind:

Row | Compound | IC50 [µM]
4 | O=c1cc(N2CCOCC2)nc(Cc2nc3ccc(F)cc3[nH]2)[nH]1 [Example 1, 2-[(5-fluoro-1H-benzimidazol-2-yl)methyl]-6-(morpholin-4-yl)pyrimidin-4(3H)-one] | 0.041
5 | Cn1c(Cc2nc(N3CCOCC3)cc(=O)[nH]2)nc2ccccc21 [Example 10, 2-[(1-methyl-1H-benzimidazol-2-yl)methyl]-6-(morpholin-4-yl)pyrimidin-4(3H)-one] | 0.027

The compounds below were run on AKT protein phosphorylated on serine 473 in PC3 human prostate carcinoma cells (assay: pAKT expression in PC3 cells measured by western blotting (test A)). Conditions: PC-3, inhibition of AKT Ser473 phosphorylation, 1 to 2 hours incubation, absolute IC50, mean of two experiments.
Assay type: cell-based
Method: as §1
Study of pAKT expression in PC3 human prostate carcinoma cells measured by western blotting (test A):
This test is based on measuring the expression of the AKT protein phosphorylated on serine 473. The phosphorylation of AKT (pAKT) is measured by western blotting in the PC3 human prostate carcinoma line (ATCC CRL-1435), using an antibody that specifically recognises pAKT-5473.
as §2, with “6-well” for “96-well”, “#92006)” for “#92096)”, “0.8×10^6” for “35 000”, “1800” for “200”, “(SVF” for “(FCS”
as §3, with “2 hours” for “2 h”, “5%” for “5% of”, “a 10-times” for “a 20-times”
After this incubation, the cells are lysed for the preparation of the proteins. After the culture medium has been drawn off, the cells are rinsed with 1 ml of PBS (DPBS Gibco, #14190-094), recovered by scraping in 200 μl of complete HNTG buffer and transferred into a 96-well plate (Greiner #651201), and lysed for 1 h on ice. The HNTG buffer is composed of the following mixture: 50 mM hepes, 150 mM NaCl, 1% triton, 10% glycerol, with extemporaneous addition of one Mini Protease Inhibitor Cocktail tablet (Roche 1836153) and of one Phosphatase Inhibitor Cocktail tablet (Roche 104906837001) per 10 ml of buffer.
The lysate is centrifuged for 10 min at 6000 rpm. 155 μl of supernatant are recovered. 150 μl are incubated for denaturation for 5 min at 95° C. in the presence of 4× NuPAGE LDS Sample Buffer diluted 4-fold (InVitrogen ref NP0007) and of 10× NuPAGE Sample Reducing Agent diluted 10-fold (InVitrogen ref NP0009). These samples are then frozen at −20° C. 5 μl are assayed by the microBCA technique according to the technical bulletin of the MicroBCA Protein Assay Kit (Pierce #23235).
For protein separation, 20 μg of proteins are loaded on to a NU-PAGE 4-12% Bis Tris Gel 12 well (InVitrogen ref NP0322BOX) and the migration is carried out for 1 h 30 in 20×NU-PAGE MOPS SDS Running Buffer diluted 20-fold (InVitrogen ref NP0001), at 150 volts.
The gel is then transferred onto an Invitrolon PVDF membrane (Invitrogen #LC2007) permeabilised beforehand for a few seconds in ethanol (Ethanol Fischer Scientific #E/0600DF/15).
The transfer is carried out in a Biorad tank at 30 volts overnight or at 60 volts for 3 hours, in the presence of 20× NUPAGE Transfer Buffer diluted 20-fold (InVitrogen ref NP0006).
The membrane is then saturated in saturating solution composed of TBS (10× Tris Buffered Saline, Sigma #T5912, diluted 10-fold), 0.1% Tween 20 (Sigma #P5927) and 3% BSA (Bovine Serum Albumin Fraction V, Sigma #A4503) for 6 h after overnight transfer or else for 1 h after transfer for a period of 3 h.
The primary antibodies are diluted to 1/1000th for the anti-phospho AKT-Ser473 antibody (193H2, rabbit monoclonal, cat#4058 from Cell Signaling Technology) Abcam), in saturating solution composed of […], 0.1% Tween 20 and 3% BSA, and then shaken overnight at 4° C.
Two rinses for 5 min in washing solution composed of TBS and 0.1% Tween 20 are carried out before hybridisation of the secondary antibodies. […]

Row | IC50 [µM] | Compound
6 | 1.34 | O=c1cc(N2CCOCC2)nc(Cc2nc3ccc(Br)cc3[nH]2)[nH]1 [Example 3, 2-[(5-bromo-1H-benzimidazol-2-yl)methyl]-6-(morpholin-4-yl)pyrimidin-4(3H)-one]
7 | 0.38 | O=c1cc(N2CCOCC2)nc(Cc2nc3ccc(F)cc3o2)[nH]1 [Example 6, 2-[(6-fluoro-1,3-benzoxazol-2-yl)methyl]-6-(morpholin-4-yl)pyrimidin-4(3H)-one]
8 | 0.903 | O=c1cc(N2CCOCC2)nc(Cc2nc3cc(F)ccc3o2)[nH]1 [Example 7, 2-[(5-fluoro-1,3-benzoxazol-2-yl)methyl]-6-(morpholin-4-yl)pyrimidin-4(3H)-one]

Further lines, the compound ahead of its results:

Row | Compound | IC50 [µM]
9 | O=c1cc(N2CCOCC2)nc(Cc2nc3ccc(F)cc3[nH]2)[nH]1 [Example 1, 2-[(5-fluoro-1H-benzimidazol-2-yl)methyl]-6-(morpholin-4-yl)pyrimidin-4(3H)-one] | 0.298
10 | Cn1c(Cc2nc(N3CCOCC3)cc(=O)[nH]2)nc2ccccc21 [Example 10, 2-[(1-methyl-1H-benzimidazol-2-yl)methyl]-6-(morpholin-4-yl)pyrimidin-4(3H)-one] | 0.713
